Measurements taken from US20240415819A1, “MACROCYCLIC COMPOUNDS AS PROTEASOME SUBUNIT BETA TYPE-5 INHIBITORS” (Lead Discovery Center GmbH, priority 2021, published 2024).

Legend:
[1] = system: RPMI 8226 (B lymphocyte cell line, multiple myeloma); test: 48 hr CTG viability assay, RPMI 8226; type: cell-based; conditions: Homo sapiens, RPMI-8226; 48 hr CTG; read-out: RPMI-8226 IC50
Summary of the method: (§1)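 Growth inhibition by compound over 48 h; IC50 (nM) derived from duplicate CellTiter-Glo luminescence readings across 0.0015–10 uM.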

[2] = system: MM1 S (B lymphoblast cell line); test: 48 hr CTG viability assay, MM1S; type: cell-based; conditions: Homo sapiens, 48 hr CTG, read-out: MM1S IC50
Summary of the method: as §1

[3] = molecular target: T1, β5 subunit of the human immunoproteasome (IPS) (Homo sapiens, UniProt P28062); test: β5 inhibition assay, human immunoproteasome (Suc-LLVY-AMC); type: biochemical; conditions: IC50 class, Suc-LLVY-AMC substrate
T1 construct: purchased Boston Biochem E-370
Summary of the method: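 Human immunoproteasome (1 nM final) was preincubated 10 min at RT with compound in 100 mM HEPES pH 7.5, 50 mM NaCl, 0.02% SDS, 1 mM DTT. Suc-LLVY-AMC (22.6 μM final) was then added for 4 h at RT in the dark. After stopping with 1 μM bortezomib, AMC fluorescence was read (ex 355/em 460 nm).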

[4] = system: A549 (human lung carcinoma cell line); test: Glo assay of A549 cells (Table 3; ProteasomeGlo plating scheme); type: cell-based; conditions: Homo sapiens; A549 cells; read-out: PGLo A549
Summary of the method: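 After acoustic compound transfer, plates incubate 105 min (37° C., 5% CO2). Proteasome-Glo reagent containing Suc-LLVY-Glo substrate is added, plates are shaken, then luminescence is measured after 10-15 min to derive IC50 [nM]. Staurosporine and DMSO serve as controls.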

[5] = molecular target: T2, β5 subunit of the human constitutive proteasome (CPS) (Homo sapiens, UniProt P28074); test: β5 inhibition assay, human constitutive proteasome (Suc-LLVY-AMC); type: biochemical; conditions: IC50 class, Suc-LLVY-AMC substrate
T2 construct: purchased Boston Biochem E-360
Procedure: The enzymatic activity of the β5 subunit of the human constitutive proteasome (CPS) is analyzed. In another assay, which differs from the assay of the human constitutive proteasome only in using the human immunoproteasome (IPS) the enzymatic activity of the β5 subunit of the human immunoproteasome (IPS) is analyzed. […] Inhibition is indicated as IC50 [nM] (“-”=not measured).

[6] = system: Hs 746T (human gastric carcinoma cell line); test: 48 hr CTG viability assay, Hs 746T; type: cell-based; conditions: Hs746T, 48 hr CTG, read-out: Hs 746T IC50
Summary of the method: as §1

Measured: IC50

Cc1ccc2cc1CNC(=O)[C@H](CCc1ccccc1)NC(=O)[C@@H](NC(=O)C(F)(F)CN)CC(=O)N1CCCC(CCO2)C1 (stereo partly drawn) [Compound 598, 3-amino-2,2-difluoro-N-((9S,12S)-5^4-methyl-8,11,14-trioxo-9-phenethyl-4-oxa-7,10-diaza-1(3,1)-piperidina-5(1,3)-benzenacyclotetradecaphane-12-yl)propanamide]
< 100 nM: all assays above

COc1ccc(OCCC(=O)N[C@H]2CC(=O)N3CCCC(CCOc4ccc(C)c(c4)CNC(=O)[C@H](CCc4ccccc4)NC2=O)C3)cc1 (stereo partly drawn) [Compound 622, 3-(4-methoxyphenoxy)-N-((9S,12S)-5^4-methyl-8,11,14-trioxo-9-phenethyl-4-oxa-7,10-diaza-1(3,1)-piperidina-5(1,3)-benzenacyclotetradecaphane-12-yl)propanamide]
< 100 nM: all assays above

Cc1ccc2cc1CNC(=O)[C@H](CCC(C)C)NC(=O)[C@@H](NC(=O)Cc1cn3ccsc3n1)CC(=O)N1CCCC(CCO2)C1 (stereo partly drawn) [Compound 583, 2-(imidazo[2,1-b]thiazol-6-yl)-N-((9S,12S)-9-isopentyl-5^4-methyl-8,11,14-trioxo-4-oxa-7,10-diaza-1(3,1)-piperidina-5(1,3)-benzenacyclotetradecaphane-12-yl)acetamide]
< 100 nM: all assays above

Cc1ccc2cc1CNC(=O)[C@H](CCc1ccccc1)NC(=O)[C@@H](NC(=O)CCOCc1ccccc1)CC(=O)N1CCCC(CCO2)C1 (stereo partly drawn) [Compound 589, 3-(benzyloxy)-N-((9S,12S)-5^4-methyl-8,11,14-trioxo-9-phenethyl-4-oxa-7,10-diaza-1(3,1)-piperidina-5(1,3)-benzenacyclotetradecaphane-12-yl)propanamide]
< 100 nM: all assays above

Cc1ccc2cc1CNC(=O)[C@H](CCc1ccccc1)NC(=O)[C@@H](NC(=O)CCOCC1CCCC1)CC(=O)N1CCCC(CCO2)C1 (stereo partly drawn) [Compound 625, 3-(cyclopentylmethoxy)-N-((9S,12S)-5^4-methyl-8,11,14-trioxo-9-phenethyl-4-oxa-7,10-diaza-1(3,1)-piperidina-5(1,3)-benzenacyclotetradecaphane-12-yl)propanamide]
< 100 nM: all assays above

Cc1ccc2cc1CNC(=O)[C@H](CCc1ccccc1)NC(=O)[C@@H](NC(=O)CCN1CCC3(CCCCC3)CC1)CC(=O)N1CCCC(CCO2)C1 (stereo partly drawn) [Compound 608, N-((9S,12S)-5^4-methyl-8,11,14-trioxo-9-phenethyl-4-oxa-7,10-diaza-1(3,1)-piperidina-5(1,3)-benzenacyclotetradecaphane-12-yl)-3-(3-azaspiro[5.5]undecan-3-yl)propanamide]
< 100 nM: all assays above

Cc1ccc2cc1CNC(=O)[C@H](CCc1ccccc1)NC(=O)[C@@H](NC(=O)OC1CCCCC1)CC(=O)N1CCCC(CCO2)C1 (stereo partly drawn) [Compound 632, cyclohexyl ((9S,12S)-5^4-methyl-8,11,14-trioxo-9-phenethyl-4-oxa-7,10-diaza-1(3,1)-piperidina-5(1,3)-benzenacyclotetradecaphane-12-yl)carbamate]
< 100 nM: all assays above

Cc1ccc2cc1CNC(=O)[C@H](CCc1ccccc1)NC(=O)[C@@H](NC(=O)CCNCCC1CCC1)CC(=O)N1CCCC(CCO2)C1 (stereo partly drawn) [Compound 693, 3-((2-cyclobutylethyl)amino)-N-((9S,12S)-5^4-methyl-8,11,14-trioxo-9-phenethyl-4-oxa-7,10-diaza-1(3,1)-piperidina-5(1,3)-benzenacyclotetradecaphane-12-yl)propanamide]
< 100 nM: all assays above

Cc1ccc2cc1CNC(=O)[C@H](CCc1ccc(N)cc1)NC(=O)[C@@H](NC(=O)Cc1cn3ccsc3n1)CC(=O)N1CCCC(CCO2)C1 (stereo partly drawn) [Compound 708, N-((9S,12S)-9-(4-aminophenethyl)-5^4-methyl-8,11,14-trioxo-4-oxa-7,10-diaza-1(3,1)-piperidina-5(1,3)-benzenacyclotetradecaphane-12-yl)-2-(imidazo[2,1-b]thiazol-6-yl)acetamide]
< 100 nM: all assays above

Cc1ccc2cc1CNC(=O)C(CCc1ccncc1)NC(=O)[C@@H](NC(=O)Cc1ccc(N)cc1C)CC(=O)N1CCCC(CCO2)C1 (stereo partly drawn) [Compound 678, 2-(4-amino-2-methylphenyl)-N-((12S)-5^4-methyl-8,11,14-trioxo-9-(2-(pyridin-4-yl)ethyl)-4-oxa-7,10-diaza-1(3,1)-piperidina-5(1,3)-benzenacyclotetradecaphane-12-yl)acetamide]
< 100 nM: all assays above

CC(=O)N1CC(CC(=O)N[C@H]2CC(=O)N3CCCC(CCOc4ccc(C)c(c4)CNC(=O)[C@H](CCc4ccccc4)NC2=O)C3)C1 (stereo partly drawn) [Compound 697, 2-(1-acetylazetidin-3-yl)-N-((9S,12S)-5^4-methyl-8,11,14-trioxo-9-phenethyl-4-oxa-7,10-diaza-1(3,1)-piperidina-5(1,3)-benzenacyclotetradecaphane-12-yl)acetamide]
< 100 nM: all assays above
